“And” between values parts separate entries of the source, which are not always exact repeats. Equal entries are not always repeated.
Assays:
[1] = test system: S. minnesota SLH 157 (wild type, functional OM); assay: MIL-based whole-cell extraction (capture, wash, back-extraction, plating); parameters: species or system Salmonella enterica; key to Relative Affinity for MIL: +++++: higher losses during wash step are due to lower cellular affinity for the MIL; ++++: higher losses during wash step are due to lower cellular affinity for the MIL; +++: higher losses during wash step are due to lower cellular affinity for the MIL; ++: higher losses during wash step are due to lower cellular affinity for the MIL; +: higher losses during wash step are due to lower cellular affinity for the MIL
Procedure: (§1) A universal schematic for MIL-based cell extraction is depicted in FIG. 7B. A 1 mL volume of diluted cell suspension was added to a flat-bottomed 4-mL screw cap glass vial. Fifteen microliters of either the Ni(II) or Dy(III) MIL was added and dispersed into microdroplets by vortex agitation for 30 s. The aqueous phase was decanted following dispersive extraction, and the MIL was subjected to a brief wash step using 1 mL of nuclease-free water (Integrated DNA Technologies, Coralville, IA, USA) to ensure adequate removal of loosely or incidentally bound cells. After washing, release of viable cells from the MIL extraction phase was carried out using a “back-extraction” step accomplished through addition of 1 mL of an ionically-rich nutritive medium comprised of 20 g L^−1 tryptone and 10 g L^−1 NaCl, followed by a 120 s vortex step. After back-extraction, aliquots of the cell-enriched back-extraction medium were enumerated using the track dilution method using 100×100 mm square, gridded TSA, BSA, CA or VRBGA plates.
(§2) Following back-extraction, aliquots of the cell-enriched back-extraction medium were serially diluted in 0.1% peptone water and a 10 μL aliquot of each dilution was applied to a separate lane on square plates containing an appropriate agar medium. The plates were then tilted at an approximately 80° angle for 15 min to allow the droplets to travel toward the opposite end of the plate. The plates were incubated for 24 h at 37° C. (TSA, VRBGA), for 48 h at 37° C. (BSA) or for 24 h at 37° C. (CA). Colonies were counted and colony forming units (CFU) were determined. The enrichment factor (EF) for MIL-based extraction was calculated using Equation 1, where CMIL represents the concentration of bacteria in suspension following extraction using the MIL and CS is the initial concentration of bacteria in the sample.
(§3) To further evaluate the importance of the OM to serve as a surface to which the MIL can bind and as a protective layer from potentially deleterious activities of the Ni(II) MIL, capture and recovery of two physiological variants of S. minnesota was performed. The strains compared were S. minnesota SLH 157 (wild type, functional OM) and S. minnesota mR613 (OM mutant). […] Compared to the wild type, cells with a truncated OM are dramatically more susceptible to damage from antimicrobial agents or chemically harsh environments. To study the effect of the Ni(II) MIL exposure on the recovery of wild type and mutant strains of S. minnesota, a 1 mL aliquot of TSB was inoculated with 1×10^5 CFU mL^−1 of bacteria and spiked with 15 μL of the Ni(II) MIL. MIL-based extraction was performed and 10 μL aliquots of the back-extraction solution were enumerated using TSA and BSA plates. Average CFU counts were compared to a standard that was not exposed to the Ni(II) MIL. Extraction and recovery of S. typhimurium was also assessed. Enrichment factors were calculated.
(§4) Although all of the strains assessed were capable of being enriched by the MIL, some species were physically enriched to greater extents than others with extraction. In order to further examine the cause for this finding, the number of captured cells lost to the wash solution was investigated. The wash step is performed after the MIL enrichment step in order to remove any incidentally-adsorbed bacteria prior to back-extraction. It is hypothesized that the cells with lower enrichment factors have lower affinities for the MIL and are therefore lost in greater number to the wash solution than those having higher enrichment factors. […] The percent-loss during the wash step ranged from 47-79%. […] EF data from Table 4 for three overlapping Salmonella strains are superimposed to highlight trends in percent-loss, relative affinity and EF.

[2] = test system: S. minnesota mR613 (OM mutant, deep rough); assay: as above; parameters: species or system Salmonella enterica; key to Relative Affinity for MIL: +++++: higher losses during wash step are due to lower cellular affinity for the MIL; ++++: higher losses during wash step are due to lower cellular affinity for the MIL; +++: higher losses during wash step are due to lower cellular affinity for the MIL; ++: higher losses during wash step are due to lower cellular affinity for the MIL; +: higher losses during wash step are due to lower cellular affinity for the MIL; details: for Percent-Loss: cells lost to wash solution
Procedure: as §1, §2, §3, §4

[3] = test system: S. enterica subsp. arizonae; assay type: cell-based, Salmonella enterica; parameters: key to Relative Affinity for MIL: +++++: higher losses during wash step are due to lower cellular affinity for the MIL; ++++: higher losses during wash step are due to lower cellular affinity for the MIL; +++: higher losses during wash step are due to lower cellular affinity for the MIL; ++: higher losses during wash step are due to lower cellular affinity for the MIL; +: higher losses during wash step are due to lower cellular affinity for the MIL
Procedure: as §1, §2
(§5) In order to explore the broader utility of our approach, evaluation of additional cell types is needed. We began this extended evaluation of the Ni(II) MIL with seven representative DNA subgroups of Salmonella and eight strains of E. coli O157:H7. Briefly, a 1 mL aliquot of TSB was inoculated with 1×10^6 CFU mL^−1 of bacteria, and spiked with 15 μL of the Ni(II) MIL. MIL-based extraction was performed and 10 μL aliquots of the back-extraction solution were enumerated using TSA and BSA plates (Salmonella) or TSA plates (E. coli O157:H7). […] We later determined that VRBGA was a suitable common medium for this purpose and used this in our statistical analysis. Average CFU counts were compared to standards that were not exposed to the Ni(II) MIL. Enrichment factors were calculated for Salmonella on both non-selective (TSA) and selective agars (BSA) and for E. coli O157:H7 on non-selective agar (TSA). […] Note: As BSA is a Salmonella-specific agar E. coli O157:H7 was not plated to BSA in this example.
as §4

[4] = test system: S. enterica subsp. diarizonae; assay type: cell-based, Salmonella enterica; parameters: key to Relative Affinity for MIL: +++++: higher losses during wash step are due to lower cellular affinity for the MIL; ++++: higher losses during wash step are due to lower cellular affinity for the MIL; +++: higher losses during wash step are due to lower cellular affinity for the MIL; ++: higher losses during wash step are due to lower cellular affinity for the MIL; +: higher losses during wash step are due to lower cellular affinity for the MIL
Procedure: as §1, §2, §5, §4

[5] = 1×10^5 CFU mL^−1 in TSB, 15 μL MIL
[6] = ranked from percent-loss in wash step
[7] = 1×10^6 CFU mL^−1 in TSB, 15 μL MIL

CCCCCCCCCCCCCC[P+](CCCCCC)(CCCCCC)CCCCCC.O=C([CH-]C(=O)C(F)(F)F)C(F)(F)F.O=C([CH-]C(=O)C(F)(F)F)C(F)(F)F.O=C([CH-]C(=O)C(F)(F)F)C(F)(F)F.[Ni+2] [Ni(II) MIL, [P66614^+][Ni(hfacac)3^−]]
Enrichment Factor (BSA) [1, 5]: 11 | Enrichment Factor (TSA) [1, 5]: 17 | Percent-Loss ([1]; cells lost to wash solution): 59 ± 3% | Relative Affinity for MIL [1, 6]: +++ | Enrichment Factor (TSA) [2, 5]: 4 | Percent-Loss [2]: 69 ± 5% | Percent-Loss ([2]; listed as MIL): 79% | antimicrobial effect of capture process on deep rough mutant ([2]; post-capture growth behavior on TSA): not overtly antimicrobial | Relative Affinity for MIL [2, 6]: ++ | Relative Affinity for MIL [3]: + | Enrichment Factor (BSA) [3, 7]: 2 and 4 | Enrichment Factor (TSA) [3, 7]: 3 | Percent-Loss ([3]; cells lost to wash solution): 79 ± 1% | Relative Affinity for MIL [4]: +++++ | Enrichment Factor (BSA) [4, 7]: 11 | Enrichment Factor (TSA) [4, 7]: 7 | Percent-Loss ([4]; cells lost to wash solution: wash counts / (wash + back-extraction counts) × 100): 47 ± 7%

Reference: patent US12416052B2, “Capturing, concentrating, and detecting microbes in a sample using magnetic ionic liquids and recombinase polymerase amplification” (priority 2019, dated 2025)
